Test results reported in patent US11278682B2, “Device and method for aerosolized delivery of substance to a natural orifice of the body” (SIPNOSE LTD., priority 2014, dated 2022).
Like-named read-outs stand apart in the source and are kept apart here. Values belong to the molecule of their own block, whether it stands above or below them.

How the values were obtained:
[1] = SPECT-CT distribution of 99mTC-DTPA aerosol in nasal cavity and nasopharynx; assay type: in vivo; settings: human volunteer, 300 microliters, air volume 20 ml
Description: The effects of air volume and air pressure on the distribution of 99mTC-DTPA aerosol in the nasal cavity and nasopharynx were examined using SPECT-CT for two human volunteers.
In both cases, the deposited material comprised 300 microliters of DTPA; 1.75 mc (milli Ciri) and the air volume was 20 ml. A pressure of 6 barg was used for the results shown in FIG. 31A, while a pressure of 4 barg was used for the results shown in FIG. 31B.

[2] = rat, in vivo
Description: For most liquid drug formulations, the drugs are dissolved in, suspended in or mixed with water-based liquids. However, many of the cannabis derivatives that show promise as therapeutic agents, such as the cannabinoids, need to be dissolved in oil. Therefore, a study was done to investigate uptake to the brain of an oil-based formulation. For this study, Fluorescein was dissolved in oil and administered intranasally, via the SipNose device, to rats. Fluorescein was administered to the control animals intravenously.

[3] = tested on: rats; experiment: Repeated Topiramate dosing: histopathological evaluation; assay type: in vivo, rat; settings: all samples of all tissues examined, 6 days dosing
Description: (§1) The study was performed according to the parameters of Table 31, for group allocation, and Table 32, for the study time-line. […] This provided a total of 1.56 mg per day per animal. For the liquid nasal samples, the administration was performed IN via SipNose's dedicated device at doses of 78 μL, from 10 mg/ml stock, or orally, after dilution to a dose volume of 200 μL. Food consumption was monitored two days before study initiation and daily during the study. Three (3) animals per group were sacrificed 45 minutes after the first dose of the first day, and six animals per group were sacrificed after 6 consecutive days of dosing, via CO2 asphyxiation.
(§2) Perfusion was performed under anesthesia with Isoflurane, using saline, for further PK examination of compounds in the brain.
Animals were sacrificed 45 minutes after the first administration of Day 1 and the last administration of Day 6, following blood sampling of 400 μL, if required, as described below. Three (3) rats, sacrificed after the first dosing day, were perfused with saline for PK analysis of blood and brain. Animals sacrificed on the last day of the study (after one dose only) were divided into 2 groups: one animal in each cage was bled and perfused with saline, after which the brain was collected and frozen in liquid nitrogen for PK analysis. […] Inflammatory status was evaluated. […]

[4] = tested on: rats; experiment: Repeated Topiramate dosing: body weight and food consumption; assay type: in vivo, rat
Excerpt: The study investigated repeated intra-nasal delivery of Topiramate, using SipNose's novel device, in order to evaluate its effect on food consumption, body weight, and behavior and to measure the concentrations of the drug in the brain and plasma, in comparison to oral administration. Also, the safety of repeated dosing was examined.
The probability of appetite loss is a potential indicator for Topiramate. Food consumption was monitored during the experiment, and as the expectation was that food consumption will be reduced, care was taken in order to make sure it is not too dramatic or harmful to the animals.
A total of 38 rats were utilized. Thirty six (36) rats were divided into four groups of nine animals in each group. Two animals were used as the naïve, untreated group.
Topiramate was used in its original API form with no specific formulation. Topiramate was delivered to the nasal cavity either as a dry powder or as a solution of 10 mg/ml solubilized in Saline.
Application was by means of a SipNose device (FIG. 105) configured for use in the nasal cavities of rats. In order to alleviate the discomfort animal might endured during IN administration, Lidocaine was locally applied on the nasal area, prior to placement of the SipNose's device.
as §1
Body weight was recorded upon arrival, 2 days before study initiation and once a day thereafter.

[5] = tested on: rats; settings: cited from earlier work
[6] = tested on: Sprague-Dawley rats; experiment: Topiramate safety and toxicity study (food consumption, body weight, histopathology); assay type: in vivo, rat
Description: A study was performed to evaluate the safety and toxicity, including adverse effects, of Topiramate following intranasal administration via a SipNose device to Sprague-Dawley (SD) rats. A dose 8 times the therapeutic dose was administered in order to determine the maximal tolerated dose. Doses used in this study were chosen to assess the safety of the approved drug given via the nose with an embodiment of a sipNose device.
Animals were observed individually at least once during the first 30 minutes after dosing, with special attention during the first four hours and prior to termination. Observations included changes in skin and fur, eyes and mucous membranes, and also respiratory, circulatory, autonomic and central nervous systems, and somatomotor activity and behavior pattern.
Body weight was monitored one day after the animals' arrival, prior to administration of the test material and before termination.
Animals were sacrificed via carbon dioxide asphyxiation and gross pathology was performed, examining the major tissue and organ systems.
Lungs were evaluated in both right and left lobes. All tissues were trimmed into block cassettes and sent to L.E.M for slide preparation and staining.

[7] = tested on: patients; settings: commercial use; cited from earlier work
[8] = in vivo; settings: male, Sprague-Dawley, rat, 6 mg; for half-life: Half-life (estimated)
Description: (§3) A total of 13 male Sprague-Dawley rats were utilized. The animals were divided into four treated groups of three rats and one group with one naïve control rat.
(§4) The following tests were performed: • After sacrifice, gross pathology was performed, examining the nasal cavity (both sides, including the olfactory epithelium), the nasopharynx, paranasal sinus, trachea, lungs, brain (in several areas including the olfactory bulb), heart and larynx. • A histopathological evaluation of all groups of animals was made. • Blood was collected and plasma prepared 10, 30 and 90 min after the first and second administration and at termination.
(§5) IN application was carried out using solution at a dose volume of 300 μl per naris or as a powder (in two formulations). In all cases the total dose per rat was 6 mg of Topiramate. Prior to application of the test material, lidocaine was applied locally to the outer area of the nostril in order to decrease the level of distress.
(§6) Blood samples were collected into Li-Heparin tubes on ice, at 10, 30 and 90 min post first and second dosing. A blood volume of approximately 300 μl was obtained at each time point.
(§7) Topiramate was administered to the relevant study groups twice, with a five hour interval between administrations.

[9] = rat, in vivo; remark: listed apart in the source
Description: as §3, §4, §5, §6, §7

[10] = Repeated Topiramate dosing: plasma and brain concentrations; assay type: in vivo; settings: rat, 0.78 mg, rats
Description: as §1, §2
Animals were sacrificed 45 minutes after the first administration of Day 1 and the last administration of Day 6, following blood sampling of 400 μL, if required, as described below. Three (3) rats, sacrificed after the first dosing day, were perfused with saline for PK analysis of blood and brain. Animals sacrificed on the last day of the study ([…]) were divided into 2 groups: one animal in each cage was bled and perfused with saline, after which the brain was collected and frozen in liquid nitrogen for PK analysis. The second animal in the cage was sacrificed by CO2 asphyxiation and the nasal cavity (including the olfactory epithelium), nasopharynx, paranasal sinus, trachea, lungs, brain, heart and larynx were collected and fixed in 4% formaldehyde and Histopathological evaluation (H&E staining) was performed. Inflammatory status was evaluated. Slide preparation was followed by histopathological examination of the collected organs during scheduled termination and necropsy from all the animals. Tissues were trimmed, embedded in paraffin, sectioned at approximately five micron thickness and stained with Hematoxylin & Eosin (H&E).

[11] = Brain absorption of insulin after SipNose nasal administration (quantitative ELISA); assay type: in vivo; settings: rabbit; 10 U/Kg via SipNose nasal administration; 1 h, 2 h, 3 h post administration
Description: The substance in this experiment is Human Insulin (Lispro insulin, 5807 Da); the animal model is a rabbit. Administration was 10 U/Kg of Human Insulin via SipNose nasal administration. Brain concentrations were measured using insulin quantitative ELISA at 1 h, 2 h, and 3 h post administration.

[12] = Blood and brain absorption of insulin, SipNose nasal vs IV administration; assay type: in vivo, rabbit; settings: rabbits, 0.5 U/kg
Description: In FIG. 76A-C, the efficacy of delivery of insulin to the brain is compared for the SipNose device vs. IV administration. The substance was Lispro insulin (5,807 Da) administered to rabbits. Four rabbits were used; all animals were given 0.5 U/kg of Human Insulin. Administration was via IV for rabbits 1 and 3 and via SipNose nasal administration for rabbits 2 and 4. Brain concentrations were measured using insulin quantitative ELISA.

Molecule: O=C([O-])CN(CCN(CC(=O)[O-])CC(=O)[O-])CCN(CC(=O)[O-])CC(=O)[O-].[99Tc+4] [99mTC-DTPA]
distribution of aerosol (SPECT-CT) ([1]; pressure 4 barg): localized in the nasal cavity at the respiratory and olfactory epitheliums and also moved down into the Nasopharynx (upper dotted arrow) and into the GI tract
distribution of aerosol (SPECT-CT) ([1]; pressure 6 barg): localized in the nasal cavity at the respiratory and olfactory epitheliums (dashed arrow) and did not reach the Nasopharynx and did not enter the GI tract

early deposition in the spinal cord [2]: considerably less early deposition
uptake to the brain vs I/V [2]: considerably more uptake to the brain
Molecule: O=C1OC2(c3ccc(O)cc3Oc3cc(O)ccc32)c2ccccc21 [Fluorescein]
distribution within the brain [2]: distributed throughout the brain, rather than being concentrated in the cerebellum

Molecule: CC1(C)O[C@@H]2[C@@H](CO[C@@]3(COS(N)(=O)=O)OC(C)(C)O[C@@H]23)O1 [Topiramate]
histopathological findings after repeated dosing [3]: No major histopathological findings were observed
food consumption ([4]; Group 2M liquid Topiramate oral): increased food consumption
increase in body weight relative to all other treatment groups ([4]; Group 2M, end of treatment period (day 6)): 2 fold
increase in body weight during the treatment phase ([4]; Group 2M, liquid Topiramate oral, 0.78 mg twice a day, 6 days): approximately 17%
food consumption ([4]; Group 3M liquid Topiramate IN SipNose): reduced food consumption
food consumption ([4]; Group 4M dry powder Topiramate IN SipNose): reduced food consumption
increase in body weight during the treatment phase ([4]; the other treatment groups (IN via SipNose)): ~8%
time for which ED50 is stable after oral administration [5]: 8 h
Food consumption on Day 2, relative to naïve rats ([6]; rats treated IN with Topiramate liquid): 98%
Food consumption on Day 2, relative to naïve rats ([6]; rats treated by Topiramate powder IN): around 60%
Food consumption on Day 2, relative to naïve rats ([6]; rats treated orally with Topiramate): 91%
body weight change from study initiation to termination ([6]; rats, all groups): relatively minor
drug-related pathological changes (histology) ([6]; rats, any animal, any investigated tissue, 6 mg twice, oral or IN): No drug-related pathological changes were detected
patients with side effects such as somnolence, fatigue and dizziness [7]: over 10%
half-life [8]: 0.75 h
half-life ([8]; inhaled or intranasal): 4.32 h
AUC ([8]; po, AUC (estimated)): 11800 ng·h/mL
lower plasma value 10 minutes after second vs first administration ([9]; male, Sprague-Dawley, 10 min): 26%
plasma level 10 minutes after first administration, IN vs oral ([9]; male, Sprague-Dawley, 10 min): about twice the concentration found 10 minutes after oral administration
Half-life (estimated) ([9]; male, Sprague-Dawley, inhaled or intranasal, 6 mg): 5.07 h
higher plasma value 10 minutes after second vs first administration ([9]; male, Sprague-Dawley, po, 10 min): 84%
plasma levels 18 hours after the second administration [9]: dropped to pre-administration levels
concentration at 45 min ([10]; brain, other: IN (intranasal) via SipNose device, group 4M powder IN, read-out: Topiramate brain concentration following the 11th administration): 1030 ± 172 ng/mL
concentration at 45 min ([10]; plasma, other: IN (intranasal) via SipNose device, group 3M liquid IN, 45 minutes, read-out: Topiramate plasma concentration after the first administration): 1510 ± 505 ng/mL
concentration at 45 min ([10]; plasma, other: IN (intranasal) via SipNose device, group 4M powder IN, 45 minutes, read-out: Topiramate plasma concentration after the first administration): 4140 ± 597 ng/mL
concentration at 45 min ([10]; plasma, other: IN (intranasal) via SipNose device, group 4M powder IN, read-out: Topiramate plasma (blood) concentration following the 11th administration): 1980 ± 256 ng/mL
concentration at 45 min ([10]; plasma, po, group 2M liquid oral, 45 minutes, read-out: Topiramate plasma concentration after the first administration): 2070 ± 228 ng/mL

Molecule: Lispro Insulin: Human Insulin (Lispro insulin, 5807 Da)
delivery of insulin to the brain (brain concentration, ELISA) [11]: delivered to the brain with the SipNose device and can be specifically detected
distribution of insulin in parts of the brain ([12]; SipNose direct-nose-to-brain): Insulin in both anterior and posterior parts of the brain
efficiency of delivery to the brain compared to I/V ([12]; SipNose nasal vs IV): highly efficient when compared to I/V administration
